Source: PubChem BioAssay (NCI)
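Dose response: 5 concentrations. Exposure: 48 h. Format: 96-well plates. Endpoint: linear interpolation; highest concentration if not reached. TGI: total growth inhibition.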

Legend:
Assay in all cases: NCI tumour cell line growth inhibition, 48 h
MDA-N = system: MDA-N
T-47D breast = system: T-47D breast
UO-31 renal = system: UO-31 renal
SF-295 CNS = system: SF-295 CNS
SK-MEL-28 melanoma = system: SK-MEL-28 melanoma
786-0 renal = system: 786-0 renal
SR leukemia = system: SR leukemia
SNB-19 CNS = system: SNB-19 CNS
OVCAR-3 ovarian = system: OVCAR-3 ovarian
KM12 colon = system: KM12 colon
UACC-257 melanoma = system: UACC-257 melanoma
U251 CNS = system: U251 CNS
HS 578T breast = system: HS 578T breast
SK-MEL-2 melanoma = system: SK-MEL-2 melanoma
CAKI-1 renal = system: CAKI-1 renal
HCC-2998 colon = system: HCC-2998 colon
SK-MEL-5 melanoma = system: SK-MEL-5 melanoma

SMILES	TGI (MDA-N) [µM]	TGI (T-47D breast) [µM]	TGI (UO-31 renal) [µM]	TGI (SF-295 CNS) [µM]	TGI (SK-MEL-28 melanoma) [µM]	TGI (786-0 renal) [µM]	TGI (SR leukemia) [µM]	TGI (SNB-19 CNS) [µM]	TGI (OVCAR-3 ovarian) [µM]	TGI (KM12 colon) [µM]	TGI (UACC-257 melanoma) [µM]	TGI (U251 CNS) [µM]	TGI (HS 578T breast) [µM]	TGI (SK-MEL-2 melanoma) [µM]	TGI (CAKI-1 renal) [µM]	TGI (HCC-2998 colon) [µM]	TGI (SK-MEL-5 melanoma) [µM]
CC(C)=NC(C(=O)O)C(C)(C)S (configuration not stated)	> 100	> 100	> 100	> 100	> 100	> 100	> 100	> 100	> 100	> 100	> 100	> 100	> 100	> 100	> 100	–	–
CNc1ccc(C)cc1S(=O)(=O)c1ccccc1[N+](=O)[O-]	> 100	> 100	> 100	> 100	> 100	> 100	> 100	> 100	> 100	> 100	–	> 100	> 100	> 100	–	> 100	46.1
COc1ccc(C[C@@H]2OC3(C=CC(=O)CC3Sc3ccccc3)O[C@H]2Cc2ccc(OC)cc2)cc1 (some centres not stated)	4.98	3.74	2.28	4.69	3.35	0.365	0.583	10.3	3.15	5.63	3.16	2.78	4.19	3.05	4.97	–	3.09
O=c1c2ccccc2nc(-c2ccccc2)n1/N=C/c1ccccc1[N+](=O)[O-]	> 100	> 100	–	> 83.3	> 100	> 100	> 100	56.7	> 100	> 100	> 100	> 94.8	15.9	> 100	> 100	> 100	> 100
Cc1ccc(S(=O)(=O)NC(=O)NC(CCCCN)C(=O)O)cc1 (configuration not stated)	> 100	> 100	> 100	> 100	> 100	> 100	> 100	> 100	–	> 100	> 100	> 100	> 100	> 100	–	–	> 100
CC1=C(C)C2(C#N)C(=O)N3C(=NC(c4ccco4)NC3c3ccco3)C2(C#N)C(c2ccco2)N1 (configuration not stated)	> 100	> 100	> 100	> 100	> 100	> 100	> 100	> 100	–	> 100	> 100	> 100	> 100	> 100	> 100	> 100	> 100
